Laboratory results taken from PubChem BioAssay (NCI).
Several values for one entry are separate records, joined by “and”; a condition that tells them apart may be missing. Equal entries are not always repeated.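 Each compound was tested at five concentrations against cells in 96-well plates for 48 hours. GI50 = concentration required for 50% inhibition of growth. Definition used: TGI = concentration required for complete inhibition of growth.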

Assays:
Experiment in all cases: NCI tumour cell line growth inhibition, 48 h
EKVX NSCLC = system: EKVX NSCLC
UACC-62 melanoma = system: UACC-62 melanoma
SF-539 CNS = system: SF-539 CNS
NCI-H460 lung = system: NCI-H460 lung
M14 melanoma = system: M14 melanoma
IGROV1 ovarian = system: IGROV1 ovarian
MDA-MB-231 breast = system: MDA-MB-231 breast
MALME-3M melanoma = system: MALME-3M melanoma
SK-OV-3 ovarian = system: SK-OV-3 ovarian
ACHN renal = system: ACHN renal
CAKI-1 renal = system: CAKI-1 renal
HCC-2998 colon = system: HCC-2998 colon
TK-10 renal = system: TK-10 renal
HCT-15 colon = system: HCT-15 colon
NCI-H23 lung = system: NCI-H23 lung
NCI-H226 lung = system: NCI-H226 lung
SNB-19 CNS = system: SNB-19 CNS
HCT-116 colon = system: HCT-116 colon
HL-60(TB) leukemia = system: HL-60(TB) leukemia
HOP-92 NSCLC = system: HOP-92 NSCLC
PC-3 prostate = system: PC-3 prostate
OVCAR-8 ovarian = system: OVCAR-8 ovarian
MDA-MB-435 = system: MDA-MB-435
A549 NSCLC = system: A549 NSCLC
HT29 colon = system: HT29 colon
UACC-257 melanoma = system: UACC-257 melanoma
SF-268 CNS = system: SF-268 CNS
CCRF-CEM leukemia = system: CCRF-CEM leukemia
A498 renal = system: A498 renal
SF-295 CNS = system: SF-295 CNS
SK-MEL-5 melanoma = system: SK-MEL-5 melanoma
RPMI-8226 leukemia = system: RPMI-8226 leukemia
NCI/ADR-RES ovarian = system: NCI/ADR-RES ovarian
786-0 renal = system: 786-0 renal
UO-31 renal = system: UO-31 renal
SK-MEL-2 melanoma = system: SK-MEL-2 melanoma
COLO 205 colon = system: COLO 205 colon
HOP-62 NSCLC = system: HOP-62 NSCLC
U251 CNS = system: U251 CNS
RXF 393 renal = system: RXF 393 renal
SK-MEL-28 melanoma = system: SK-MEL-28 melanoma
OVCAR-3 ovarian = system: OVCAR-3 ovarian
OVCAR-4 ovarian = system: OVCAR-4 ovarian
SN12C renal = system: SN12C renal
BT-549 breast = system: BT-549 breast
KM12 colon = system: KM12 colon
MOLT-4 leukemia = system: MOLT-4 leukemia
SW-620 colon = system: SW-620 colon
LOX IMVI melanoma = system: LOX IMVI melanoma
HS 578T breast = system: HS 578T breast
OVCAR-5 ovarian = system: OVCAR-5 ovarian
SR leukemia = system: SR leukemia
MCF7 breast = system: MCF7 breast
NCI-H522 lung = system: NCI-H522 lung
DU-145 prostate = system: DU-145 prostate
K-562 leukemia = system: K-562 leukemia
SNB-75 CNS = system: SNB-75 CNS
T-47D breast = system: T-47D breast

SMILES: Cc1ccc(NC(=O)c2ccc(CN3CC[C@H](N(C)C)C3)c(C(F)(F)F)c2)cc1Nc1nccc(-c2cncnc2)n1
- GI50 (EKVX NSCLC): 14.6 µM and > 10 µM
- TGI (EKVX NSCLC): 40 µM and > 10 µM
- GI50 (UACC-62 melanoma): 1.05 µM and 0.387 µM
- TGI (UACC-62 melanoma): 15.7 µM and > 10 µM
- GI50 (SF-539 CNS): 4.5 µM and 6.26 µM
- TGI (SF-539 CNS): 9.34 µM and > 10 µM
- GI50 (NCI-H460 lung): 2.99 µM and 8.15 µM
- TGI (NCI-H460 lung): 9.95 µM and > 10 µM
- GI50 (M14 melanoma): 0.425 µM and 0.668 µM
- TGI (M14 melanoma): 4.9 µM and > 10 µM
- GI50 (IGROV1 ovarian): 7.21 µM and 5.14 µM
- TGI (IGROV1 ovarian): 24.8 µM and > 10 µM
- GI50 (MDA-MB-231 breast): 1.42 µM and 1.98 µM
- TGI (MDA-MB-231 breast): 7.82 µM and > 10 µM
- GI50 (MALME-3M melanoma): 0.217 µM and 0.402 µM
- GI50 (SK-OV-3 ovarian): 16 µM and > 10 µM
- TGI (SK-OV-3 ovarian): 32.1 µM and > 10 µM
- GI50 (ACHN renal): 4.04 µM and 8.38 µM
- TGI (ACHN renal): 14.8 µM and > 10 µM
- GI50 (CAKI-1 renal): 9.06 µM and > 10 µM
- TGI (CAKI-1 renal): 27.4 µM and > 10 µM
- GI50 (HCC-2998 colon): 10.8 µM and > 10 µM
- TGI (HCC-2998 colon): 28 µM and > 10 µM
- GI50 (TK-10 renal): 15 µM and > 10 µM
- TGI (TK-10 renal): 28.4 µM and > 10 µM
- GI50 (HCT-15 colon): 4.47 µM and 5.13 µM
- TGI (HCT-15 colon): 23.5 µM and > 10 µM
- GI50 (NCI-H23 lung): 5.61 µM and 8.08 µM
- TGI (NCI-H23 lung): 26.5 µM and > 10 µM
- GI50 (NCI-H226 lung): 15.2 µM and > 10 µM
- TGI (NCI-H226 lung): 36.6 µM and > 10 µM
- GI50 (SNB-19 CNS): 10.9 µM and > 10 µM
- TGI (SNB-19 CNS): 31.7 µM and > 10 µM
- GI50 (HCT-116 colon): 1.62 µM and 2.61 µM
- TGI (HCT-116 colon): 9.9 µM and > 10 µM
- GI50 (HL-60(TB) leukemia): 5.85 µM and 0.758 µM
- TGI (HL-60(TB) leukemia): 22.6 µM and > 10 µM
- GI50 (HOP-92 NSCLC): 5.1 µM and 1.66 µM
- TGI (HOP-92 NSCLC): 22 µM and > 10 µM
- GI50 (PC-3 prostate): 13.4 µM and > 10 µM
- TGI (PC-3 prostate): 35 µM and > 10 µM
- GI50 (OVCAR-8 ovarian): 13.8 µM and > 10 µM
- TGI (OVCAR-8 ovarian): 36.1 µM and > 10 µM
- GI50 (MDA-MB-435): 1.73 µM and 3.1 µM
- TGI (MDA-MB-435): 15.6 µM and > 10 µM
- GI50 (A549 NSCLC): 11.3 µM and > 10 µM
- TGI (A549 NSCLC): 28.5 µM and > 10 µM
- GI50 (HT29 colon): 0.606 µM and 0.637 µM
- TGI (HT29 colon): 15.7 µM and > 10 µM
- GI50 (UACC-257 melanoma): 1.44 µM and 1.14 µM
- TGI (UACC-257 melanoma): 6.74 µM and 3.53 µM
- GI50 (SF-268 CNS): 10.4 µM and > 10 µM
- TGI (SF-268 CNS): 28.5 µM and > 10 µM
- GI50 (CCRF-CEM leukemia): 7.23 µM and 4.55 µM
- TGI (CCRF-CEM leukemia): 30.9 µM and > 10 µM
- GI50 (A498 renal): 12.1 µM and > 10 µM
- TGI (A498 renal): 27.1 µM and > 10 µM
- GI50 (SF-295 CNS): 4.85 µM and > 10 µM
- TGI (SF-295 CNS): 12.5 µM and > 10 µM
- GI50 (SK-MEL-5 melanoma): 3.79 µM and 4.05 µM
- TGI (SK-MEL-5 melanoma): 9.07 µM and > 10 µM
- GI50 (RPMI-8226 leukemia): 5.08 µM and 4.4 µM
- TGI (RPMI-8226 leukemia): 24 µM and > 10 µM
- GI50 (NCI/ADR-RES ovarian): 12.5 µM and > 10 µM
- TGI (NCI/ADR-RES ovarian): 45.1 µM and > 10 µM
- GI50 (786-0 renal): 6.11 µM and 6.67 µM
- TGI (786-0 renal): 14.9 µM and > 10 µM
- GI50 (UO-31 renal): 6.69 µM and 5.17 µM
- TGI (UO-31 renal): 21.9 µM and > 10 µM
- GI50 (SK-MEL-2 melanoma): 2.64 µM and 2.5 µM
- TGI (SK-MEL-2 melanoma): 13.3 µM and > 10 µM
- GI50 (COLO 205 colon): 0.331 µM and 0.423 µM
- TGI (COLO 205 colon): 6.65 µM and > 10 µM
- GI50 (HOP-62 NSCLC): 9.83 µM and 9.62 µM
- TGI (HOP-62 NSCLC): 24.5 µM and > 10 µM
- GI50 (U251 CNS): 6.28 µM and 6.5 µM
- TGI (U251 CNS): 17.3 µM and > 10 µM
- GI50 (RXF 393 renal): 11.9 µM and 9.4 µM
- TGI (RXF 393 renal): 27 µM and > 10 µM
- GI50 (SK-MEL-28 melanoma): 0.798 µM and 0.635 µM
- TGI (SK-MEL-28 melanoma): 5.53 µM and > 10 µM
- GI50 (OVCAR-3 ovarian): 6.12 µM and 8.64 µM
- TGI (OVCAR-3 ovarian): 20.5 µM and > 10 µM
- GI50 (OVCAR-4 ovarian): 10.9 µM and > 10 µM
- TGI (OVCAR-4 ovarian): 30.1 µM and > 10 µM
- GI50 (SN12C renal): 14.2 µM and > 10 µM
- TGI (SN12C renal): 34.4 µM and > 10 µM
- GI50 (BT-549 breast): 5.96 µM and > 10 µM
- TGI (BT-549 breast): 13.3 µM and > 10 µM
- GI50 (KM12 colon): 6.65 µM and > 10 µM
- TGI (KM12 colon): 23.5 µM and > 10 µM
- GI50 (MOLT-4 leukemia): 5.23 µM and 3.69 µM
- TGI (MOLT-4 leukemia): 21.4 µM and > 10 µM
- GI50 (SW-620 colon): 6.15 µM and > 10 µM
- TGI (SW-620 colon): 22.1 µM and > 10 µM
- GI50 (LOX IMVI melanoma): 0.936 µM and 0.952 µM
- TGI (LOX IMVI melanoma): 7.14 µM and > 10 µM
- GI50 (HS 578T breast): 7.62 µM and 2.23 µM
- TGI (HS 578T breast): 35.6 µM and > 10 µM
- GI50 (OVCAR-5 ovarian): 5.5 µM and 6.04 µM
- TGI (OVCAR-5 ovarian): 24.2 µM and > 10 µM
- GI50 (SR leukemia): 2.79 µM and 1.99 µM
- TGI (SR leukemia): > 24.4 µM and 5.04 µM
- GI50 (MCF7 breast): 6.63 µM and > 10 µM
- TGI (MCF7 breast): 24.6 µM and > 10 µM
- GI50 (NCI-H522 lung): 4.5 µM and > 10 µM
- TGI (NCI-H522 lung): 13.1 µM and > 10 µM
- GI50 (DU-145 prostate): 12 µM and > 10 µM
- TGI (DU-145 prostate): 29.6 µM and > 10 µM
- GI50 (K-562 leukemia): 0.00433 µM
- TGI (K-562 leukemia): 5.6 µM and > 10 µM
- GI50 (SNB-75 CNS): 10.3 µM and > 10 µM
- TGI (SNB-75 CNS): 22.8 µM and > 10 µM
- GI50 (T-47D breast): 5.16 µM and > 10 µM
- TGI (T-47D breast): 12.2 µM and > 10 µM
